In paper PMC11217349, “Development of Nurr1 agonists from amodiaquine by scaffold hopping and fragment growing” (Communications Chemistry, 2024):
Several values for one entry are separate records, joined by “and”; a condition that tells them apart may be missing. Equal entries are not always repeated. Entries after “also recorded” stand apart in the source; their conditions may differ. Where two headings read alike, the source gives them in different places.

Experiments:
[1] = molecular target: T1, human Nurr1 (hinge region and ligand binding domain) (Homo sapiens, UniProt P43354); assay: Gal4-Nurr1 hybrid reporter gene assay; format: cell-based
T1 construct: expressed in transfected cells; host or cells: HEK293T

[2] = molecular target: T2, human full-length Nurr1 homodimer (NurRE) (Homo sapiens, UniProt P43354); assay: Full-length Nurr1 reporter gene assay (NurRE); format: cell-based; settings: full-length human Nurr1 homodimer, HEK293T
T2 construct: The full-length human nuclear receptor Nurr1 (pcDNA3.1-hNurr1-NE; Addgene plasmid #102363); host or cells: HEK293T
From the text: Activation of full-length human Nurr1 was studied in transiently transfected HEK293T cells using the reporter plasmids pFR-Luc-NBRE[14], pFR-Luc-POMC[14] or pFR-Luc-DR5[14] each containing one copy of the respective human Nurr1 response element NBRE Nl3, NurRE, or DR5. The full-length human nuclear receptor Nurr1 (pcDNA3.1-hNurr1-NE; Addgene plasmid #102363) and, for DR5, RXRα (pSG5-hRXR)[57] were overexpressed. pRL-SV40 (Promega) was used for the normalization of transfection efficacy and to observe test compound toxicity. […] After 24 h, the medium was changed to Opti-MEM without supplements, and cells were transiently transfected using Lipofectamine LTX reagent (Invitrogen) according to the manufacturer’s protocol. Five hours after transfection, cells were incubated with the test compounds in Opti-MEM supplemented with penicillin (100 U/mL), streptomycin (100 μg/mL) and 0.1% DMSO for 16 h before luciferase activity was measured using the Dual-Glo Luciferase Assay System (Promega) according to the manufacturer’s protocol on a Tecan Spark luminometer (Tecan Deutschland GmbH). Firefly luminescence was divided by Renilla luminescence and multiplied by 1000 resulting in relative light units (RLU) to normalize for transfection efficiency and cell growth. Fold activation was obtained by dividing the mean RLU of the test compound by the mean RLU of the untreated control. All samples were tested in at least three biologically independent experiments in duplicates. For dose-response curve fitting and calculation of EC50 values, the equation “[Agonist] vs. response -- Variable slope (four parameters)” was used in GraphPad Prism (version 7.00, GraphPad Software).

[3] = molecular target: T3, Nurr1-RXR heterodimer (DR5) (Homo sapiens, UniProt P43354); assay: Full-length Nurr1 reporter gene assay (DR5); format: cell-based
T3 construct: The full-length human nuclear receptor Nurr1 (pcDNA3.1-hNurr1-NE; Addgene plasmid #102363); host or cells: HEK293T
Experimental: Activation of full-length human Nurr1 was studied in transiently transfected HEK293T cells using the reporter plasmids pFR-Luc-NBRE[14], pFR-Luc-POMC[14] or pFR-Luc-DR5[14] each containing one copy of the respective human Nurr1 response element NBRE Nl3, NurRE, or DR5. […] After 24 h, the medium was changed to Opti-MEM without supplements, and cells were transiently transfected using Lipofectamine LTX reagent (Invitrogen) according to the manufacturer’s protocol. Five hours after transfection, cells were incubated with the test compounds in Opti-MEM supplemented with penicillin (100 U/mL), streptomycin (100 μg/mL) and 0.1% DMSO for 16 h before luciferase activity was measured using the Dual-Glo Luciferase Assay System (Promega) according to the manufacturer’s protocol on a Tecan Spark luminometer (Tecan Deutschland GmbH). Firefly luminescence was divided by Renilla luminescence and multiplied by 1000 resulting in relative light units (RLU) to normalize for transfection efficiency and cell growth. Fold activation was obtained by dividing the mean RLU of the test compound by the mean RLU of the untreated control. All samples were tested in at least three biologically independent experiments in duplicates. For dose-response curve fitting and calculation of EC50 values, the equation “[Agonist] vs. response -- Variable slope (four parameters)” was used in GraphPad Prism (version 7.00, GraphPad Software).

NOR-1 = molecular target: T4, NOR-1 (Homo sapiens, UniProt Q92570); assay: Gal4-NOR-1 hybrid reporter gene assay; format: cell-based; settings: HEK293T
T4 construct: chimeric receptors composed of the Gal4-DBD and the hinge region and LBD; expressed in transfected cells; host or cells: HEK293T
T4 sequence (Q92570 394-623 limits assumed): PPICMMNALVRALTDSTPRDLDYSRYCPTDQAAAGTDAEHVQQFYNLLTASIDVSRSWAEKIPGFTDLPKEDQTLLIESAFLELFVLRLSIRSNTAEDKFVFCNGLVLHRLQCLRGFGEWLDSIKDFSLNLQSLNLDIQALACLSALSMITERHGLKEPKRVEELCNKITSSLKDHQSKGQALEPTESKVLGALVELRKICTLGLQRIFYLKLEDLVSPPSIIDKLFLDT
Experimental: Nurr1 modulation was determined in a Gal4 hybrid reporter gene assay in HEK293T cells (German Collection of Microorganisms and Cell Culture GmbH, DSMZ) using pFR-Luc (Stratagene, La Jolla, CA, USA; reporter), pRL-SV40 (Promega, Madison, WI, USA; internal control) and pFA-CMV-hNurr1-LBD[14], coding for the hinge region and ligand binding domain of the canonical isoform of human Nurr1. […] After 24 h, the medium was changed to Opti-MEM without supplements, and cells were transiently transfected using Lipofectamine LTX reagent (Invitrogen, Carlsbad, CA, USA) according to the manufacturer’s protocol. Five hours after transfection, cells were incubated with the test compounds in Opti-MEM supplemented with penicillin (100 U/mL), streptomycin (100 μg/mL), and 0.1% DMSO for 16 h before luciferase activity was measured using the Dual-Glo Luciferase Assay System (Promega) according to the manufacturer’s protocol on a Tecan Spark luminometer (Tecan Deutschland GmbH, Crailsheim, Germany). Firefly luminescence was divided by Renilla luminescence and multiplied by 1000 resulting in relative light units (RLU) to normalize for transfection efficiency and cell growth. Fold activation was obtained by dividing the mean RLU of the test compound by the mean RLU of the untreated control. All samples were tested in at least three biologically independent experiments in duplicates. For dose-response curve fitting and calculation of EC50 values, the equation “[Agonist] vs. response -- Variable slope (four parameters)” was used in GraphPad Prism (version 7.00, GraphPad Software, La Jolla, CA, USA). Selectivity profiling was performed with identical procedures using pFA-CMV-Nur77-LBD[14], pFA-CMV-NOR-1-LBD[14], pFA-CMV-THRα-LBD[51], pFA-CMV-RARα-LBD[52], pFA-CMV-PPARα-LBD[53], pFA-CMV-PPARγ-LBD[53], pFA-CMV-PPARδ-LBD[53], pFA-CMV-LXRα-LBD[54], pFA-CMV-FXR-LBD[55] and pFA-CMV-hRXRα-LBD[56].

[4] = system: Nurr1-regulated TH, VMAT2 and SOD2 mRNA in astrocytes (T98G); assay: Nurr1-regulated gene expression in T98G astrocytes (qPCR); format: cell-based, human; settings: vs DMSO control
PPARα = molecular target: T5, PPARα (Homo sapiens, UniProt Q07869); assay: Gal4-hybrid selectivity assay PPARα; format: cell-based; settings: 3 µM; reference agonist = 100%
T5 construct: chimeric receptors composed of the Gal4-DBD and the hinge region and LBD; expressed in transfected cells; host or cells: HEK293T
Experimental: Nurr1 modulation was determined in a Gal4 hybrid reporter gene assay in HEK293T cells (German Collection of Microorganisms and Cell Culture GmbH, DSMZ) using pFR-Luc (Stratagene, La Jolla, CA, USA; reporter), pRL-SV40 (Promega, Madison, WI, USA; internal control) and pFA-CMV-hNurr1-LBD[14], coding for the hinge region and ligand binding domain of the canonical isoform of human Nurr1. […] After 24 h, the medium was changed to Opti-MEM without supplements, and cells were transiently transfected using Lipofectamine LTX reagent (Invitrogen, Carlsbad, CA, USA) according to the manufacturer’s protocol. Five hours after transfection, cells were incubated with the test compounds in Opti-MEM supplemented with penicillin (100 U/mL), streptomycin (100 μg/mL), and 0.1% DMSO for 16 h before luciferase activity was measured using the Dual-Glo Luciferase Assay System (Promega) according to the manufacturer’s protocol on a Tecan Spark luminometer (Tecan Deutschland GmbH, Crailsheim, Germany). Firefly luminescence was divided by Renilla luminescence and multiplied by 1000 resulting in relative light units (RLU) to normalize for transfection efficiency and cell growth. Fold activation was obtained by dividing the mean RLU of the test compound by the mean RLU of the untreated control. All samples were tested in at least three biologically independent experiments in duplicates. […]

T3 sequence (P43354 whole entry): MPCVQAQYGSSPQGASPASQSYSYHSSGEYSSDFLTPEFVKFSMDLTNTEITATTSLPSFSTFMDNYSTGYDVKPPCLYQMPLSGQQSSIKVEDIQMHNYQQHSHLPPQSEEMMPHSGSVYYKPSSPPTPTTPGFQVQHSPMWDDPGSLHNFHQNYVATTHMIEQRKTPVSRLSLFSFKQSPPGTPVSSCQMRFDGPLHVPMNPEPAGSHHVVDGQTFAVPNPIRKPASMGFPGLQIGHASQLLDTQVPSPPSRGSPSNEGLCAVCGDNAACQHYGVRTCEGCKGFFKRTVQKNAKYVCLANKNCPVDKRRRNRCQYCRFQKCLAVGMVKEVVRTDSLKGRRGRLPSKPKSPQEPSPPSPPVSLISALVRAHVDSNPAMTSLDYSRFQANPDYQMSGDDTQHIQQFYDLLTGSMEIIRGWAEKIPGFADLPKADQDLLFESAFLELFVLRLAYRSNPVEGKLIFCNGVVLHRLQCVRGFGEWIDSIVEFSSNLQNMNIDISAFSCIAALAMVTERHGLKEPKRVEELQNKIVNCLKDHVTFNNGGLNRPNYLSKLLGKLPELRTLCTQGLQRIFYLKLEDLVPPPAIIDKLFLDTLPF
T3 sequence (P19793 whole entry partner): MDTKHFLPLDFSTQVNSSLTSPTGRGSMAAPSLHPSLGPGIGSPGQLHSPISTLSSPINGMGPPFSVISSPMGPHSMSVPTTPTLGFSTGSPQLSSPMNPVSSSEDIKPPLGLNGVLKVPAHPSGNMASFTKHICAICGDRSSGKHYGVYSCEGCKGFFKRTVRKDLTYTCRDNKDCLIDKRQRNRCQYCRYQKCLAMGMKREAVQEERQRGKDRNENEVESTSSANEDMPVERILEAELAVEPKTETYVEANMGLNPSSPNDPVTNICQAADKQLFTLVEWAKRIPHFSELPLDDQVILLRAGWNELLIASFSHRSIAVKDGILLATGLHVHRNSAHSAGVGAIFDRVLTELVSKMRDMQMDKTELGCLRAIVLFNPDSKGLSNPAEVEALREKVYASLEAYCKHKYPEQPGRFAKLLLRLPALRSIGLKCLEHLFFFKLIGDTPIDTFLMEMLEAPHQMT
T5 sequence (Q07869 239-466 limits assumed): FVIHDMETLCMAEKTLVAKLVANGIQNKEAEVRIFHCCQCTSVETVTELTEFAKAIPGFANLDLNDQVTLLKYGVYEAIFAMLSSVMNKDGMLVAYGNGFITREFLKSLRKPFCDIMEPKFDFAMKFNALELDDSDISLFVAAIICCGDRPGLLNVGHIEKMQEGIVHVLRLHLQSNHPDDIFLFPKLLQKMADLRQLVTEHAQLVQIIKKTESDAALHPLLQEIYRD
T1 sequence (P43354 360-595 limits assumed): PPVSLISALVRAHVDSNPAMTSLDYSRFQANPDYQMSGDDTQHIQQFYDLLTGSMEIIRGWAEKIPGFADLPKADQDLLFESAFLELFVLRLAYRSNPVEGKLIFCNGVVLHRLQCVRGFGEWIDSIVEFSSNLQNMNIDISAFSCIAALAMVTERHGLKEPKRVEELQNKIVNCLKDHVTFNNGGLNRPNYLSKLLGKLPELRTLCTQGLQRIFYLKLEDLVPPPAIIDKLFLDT
T2 sequence (P43354 whole entry): as the sequence (P43354 whole entry) above

In the case of `Cc1nc2c(Cl)cccn2c1NC(=O)c1ccc(-c2ccccc2)[nH]1` [Compound 29, N-(8-Chloro-2-methylimidazo[1,2-a]pyridin-3-yl)-5-phenyl-1H-pyrrole-2-carboxamide], the highest non-toxic concentration ([1]; Gal4-Nurr1 hybrid reporter gene assay, HEK293T) is reported as “inactive (10 µM^b)”, the “EC50(Nurr1)” value ([1]; Gal4-Nurr1 hybrid reporter, HEK293T, mean ± SD, n ≥ 3) is reported as “inactive (10 µM^b); also recorded: no activation (10 µM)” and the “fold less active than 36 as Nurr1 modulator” value ([1]; no agonism at 10 µM vs EC50 of 36) is reported as “at least 100 fold”. The “EC50(NurRE)” value [2] was “no activation (10 µM)”, the “EC50(DR5)” value ([3]; Nurr1-RXR heterodimer, HEK293T, without bexarotene) was “no activation (10 µM)” and the “EC50(NOR-1)” value (NOR-1) was “no activation (10 µM)”. The “SOD2 mRNA induction (mean)” value ([4]; 10 µM) was 1.131 fold, the “TH mRNA induction (mean)” value ([4]; 10 µM) was 1.042 fold and the “VMAT2 mRNA induction (mean)” value ([4]; 10 µM) was 0.9124 fold.

In the case of `Cc1nc2c(Cl)cccn2c1NC(=O)c1ccc(-c2ccc(N(C)C)cc2)o1` [Compound 36, N-(8-Chloro-2-methylimidazo[1,2-a]pyridin-3-yl)-5-(4-(dimethylamino)phenyl)furan-2-carboxamide], the “% rel. act. PPARα” value (PPARα) is reported as 1.669% and 2.630% and 1.870%, the EC50 ([1]; Gal4-Nurr1 hybrid reporter, HEK293T, mean ± SD, n ≥ 3, read-out: EC50(Nurr1)) is reported as 90 ± 5 nM and the EC50 [2] is reported as 94 ± 3 nM. For the same compound, the EC50 ([3]; EC50(DR5) [+0.1 µM BEX], Nurr1-RXR heterodimer, in presence of 0.1 µM bexarotene) was 32 nM, the “factor of potency enhancement by bexarotene (DR5)” value ([3]; EC50 with 0.1 µM BEX vs without) was greater than 5 and the EC50 ([3]; Nurr1-RXR heterodimer, HEK293T, without bexarotene, read-out: EC50(DR5)) was 165 ± 4 nM. For the same compound, the EC50 (NOR-1) was 110 ± 30 nM, the “SOD2 mRNA induction (mean)” value ([4]; 0.1 µM) was 1.308 fold and the “TH mRNA induction (mean)” value ([4]; 0.1 µM) was 1.414 fold. The “VMAT2 mRNA induction (mean)” value ([4]; 0.1 µM) was 1.925 fold, the “SOD2 mRNA induction (mean)” value ([4]; 0.3 µM) was 1.894 fold and the “TH mRNA induction (mean)” value ([4]; 0.3 µM) was 1.603 fold. For the same compound, the “VMAT2 mRNA induction (mean)” value ([4]; 0.3 µM) was 1.791 fold.
